According to patent US5798350A, “Dopamine receptor ligands” (Allelix Biopharmaceuticals, Inc., priority 1996, dated 1998):

Columns and labels:
[1] = molecular target: T1, human D4 receptor (D4.2 sub-type) (Homo sapiens, UniProt P21917, DEL265-296); experiment: D4 receptor binding, displacement of 3H-spiperone; conditions: for Ki: human D4 receptor, 3H-spiperone 0.25 nM
T1 construct: expressed in transfected cells; host or cells: HEK 298 (human embryonic kidney) cells, [sic]; homogenate of stably transfected cells
T1 sequence (P21917 with tags, fused parts or gaps DEL265-296): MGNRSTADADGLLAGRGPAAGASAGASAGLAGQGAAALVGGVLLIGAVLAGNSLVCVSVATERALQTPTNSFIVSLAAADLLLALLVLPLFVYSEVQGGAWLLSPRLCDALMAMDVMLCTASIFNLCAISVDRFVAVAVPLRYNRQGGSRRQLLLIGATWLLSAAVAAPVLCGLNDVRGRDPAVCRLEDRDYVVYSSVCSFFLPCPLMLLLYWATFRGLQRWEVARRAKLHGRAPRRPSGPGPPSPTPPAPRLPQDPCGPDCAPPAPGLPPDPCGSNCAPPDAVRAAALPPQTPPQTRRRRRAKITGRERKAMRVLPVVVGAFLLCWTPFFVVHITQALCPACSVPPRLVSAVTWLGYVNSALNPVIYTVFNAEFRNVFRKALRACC
Description: (§1) The potency of the test compound to reduce ^3 H-spiperone binding directly correlated to its binding affinity for the receptor.
The cells were then centrifuged in a Sorval centrifuge for 10 minutes, 5000 rpm (GS3 rotor) and the pellets quickly frozen in liquid nitrogen and stored at -80° C. until used in binding assay. When used in the assay, cells were thawed on ice for 20 minutes and then 10 mL of incubation buffer (50 mM Tris, 1 mM EDTA, 4 mM MgCl2, 5 mM KCl, 1.5 mM CaCl2, 120 mM NaCl, pH7.4) was added. […] Concentration of receptor protein was determined using the Pierce BCA assay.
(§2) Total Spiperone Binding Assay
(§3) The tubes were vortexed and incubated at room temperature for 90 minutes. The binding reaction was stopped by filtering using a Brandell Cell Harvester. The samples were filtered under vacuum over glass fibre filters (Whatman GF/B) presoaked for 2 hours in 0.3% polyethyleneimine (PEI) in 50 mM Tris buffer (pH7.4). The filters were then washed 3 times with 5 mL ice cold 50 mM Tris buffer (pH7.4). Individual filter disks were put in scintillation vials (Biovials, Bechman). Ready Protein Plus liquid scintillant (5 mL, Beckman) was added and the vials counted by liquid scintillation spectrophotometry (Beckman LSC 6500) after equilibrating for three hours at room temperature to determine total binding (BT).
Non-Specific Binding Assay for D4
The tubes were vortexed and incubated at room temperature for 90 minutes at which time the binding reaction was stopped by filtering. The filters were washed and counted using the same procedure as in the total binding assay described above to give the non-specific binding value (NSB).
(§4) Displacement Binding Assay
(§5) The incubation was started by the addition to 12×75 mm polypropylene tubes 500 μl (50 μg protein) membrane homogenate to a solution of 400 μl incubation buffer, 100 μl (0.25 final conc.) ^3 H-spiperone (90Ci/mmol, Amersham, diluted in borosilicate glass vial to) and […] of test compound that was prepared from 1 mM stock dissolved in DMSO and stored at -20° C. in polypropylene cryogenic storage vials until dilution in incubation buffer in borosilicate glass vials. The tubes were vortexed and incubated at room temperature for 90 minutes at which time the binding reaction was stopped by filtering. The filters were washed and counted using the same procedure as in the total binding assay described above to give the displacement binding value (BD).
IC50 was determined from an inhibition response curve, logit-log plot of %B/BO vs concentration of test compound.
(§6) Ki was calculated by the Cheng and Prustoff transformation: […]
(§7) where [L] is the concentration of ^3 H-spiperone used in the assay and KD is the to dissociation constant of ^3 H-spiperone determined independently under the same binding conditions.

[2] = molecular target: T2, human D2 receptor (short isoform) (Homo sapiens, UniProt P14416); experiment: D2 receptor binding, displacement of 3H-spiperone (GH4C1 cells), for D2/D4 selectivity; conditions: for D2/D4: D4 selectivity, ratio D2/D4
T2 construct: membrane homogenate, 3H-spiperone displacement
T2 sequence (P14416 with tags, fused parts or gaps DEL242-270): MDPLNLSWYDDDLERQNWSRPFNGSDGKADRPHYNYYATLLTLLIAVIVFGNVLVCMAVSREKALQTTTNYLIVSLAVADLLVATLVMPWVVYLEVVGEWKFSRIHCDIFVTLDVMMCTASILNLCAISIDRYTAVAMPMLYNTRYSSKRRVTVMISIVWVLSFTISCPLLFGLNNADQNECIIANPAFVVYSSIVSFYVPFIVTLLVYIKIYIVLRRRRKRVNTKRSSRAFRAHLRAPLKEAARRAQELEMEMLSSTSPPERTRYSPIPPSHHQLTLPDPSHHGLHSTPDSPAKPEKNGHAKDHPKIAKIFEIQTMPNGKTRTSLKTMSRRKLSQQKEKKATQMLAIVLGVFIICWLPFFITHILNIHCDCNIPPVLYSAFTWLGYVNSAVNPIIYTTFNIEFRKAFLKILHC
Description: as §1
GH4 C1 (rat pituitary) cells stably transfected with the human D2 receptor (short isoform) were grown in CO2 independent media in roller bottles (1500 cm^2) for 10 days. 100 μM ZnSO4 was added to the cells (the D2 promoter being zinc inducible). After 16 hours, fresh media was added to allow the cells to recover for 24 hours. The cells were harvested using versene and then centrifuged in a Sorval centrifuge for 10 minutes, at 5000 rpm (GS3 rotor). Pellets were quickly frozen in liquid nitrogen and stored at -80° C. until used in the binding assays. When used in the assay, cells were thawed on ice for 20 minutes. […] 10 mL of incubation buffer was added to the pellets which were then vortexed, resuspended and homogenized with a Kinematica CH-6010 Kriens-LU homogenizer for 15 seconds at setting 7. The receptor protein concentration was determined using the Pierce BCA assay.
as §2
as §3, with “The incubation was started by the addition of 500 μl (50 μg protein) membrane homogenate to a solution of 900 μl incubation buffer and 100 μl (0.25 nM final conc.) ^3 H-spiperone (90 Ci/mmol Amersham diluted in borosilicate glass vial) in 12×75 mm polypropylene tubes. The tubes” for “The tubes”
Non-Specific Binding Assay for D2
This assay employed the same procedures as the non-specific binding assay for D4 with the exception that 2 μM (final conc.) of (-) sulpiride (Research Chemicals Inc.) was used in place of dopamine.
as §4, §5
Specific binding in the absence of test compound (BO) was the difference of total binding (BT) minus non-specific binding (NSB) and similarly specific binding (in the presence of test compound) (B) was the difference of displacement binding (BD) minus non-specific binding (NSB). IC50 was determined from an inhibition response curve, logit-log plot of %B/BO vs concentration of test compound.
as §6, §7

[3] = test system: D4 receptor; conditions: background, cited from earlier work
[4] = compared with corresponding 4-methyl piperazine compound

Row | Structure (SMILES) | Ki [1] [nM] | D2/D4 [2] | D4 selectivity ([2]; compared with clozapine) | D4 selectivity [2, 4] | D4 affinity ([1]; compared with clozapine) | D4 affinity and selectivity [1, 4] | D4 affinity and selectivity ([1]; compared with clozapine) | preference for binding the D4 receptor relative to the D2 receptor [3] | Ki ([3]; read-out: Ki value (D4 affinity)) [nM]
1 | Clc1ccc2c(c1)C(N1CCN(Cc3ccc4c(c3)OCO4)CC1)=Nc1cc(Cl)c(Cl)cc1N2 [2,7,8-trichloro-11-(4-piperonyl-1-piperazinyl)-5H-dibenzo[b,e][1,4]diazepine] | 149 | 15.7 | better D4 selectivity than clozapine | better D4selectivity than the corresponding 4-methyl piperazine compound | – | – | – | – | –
2 | Clc1ccc2c(c1)C(N1CCN(Cc3ccc4c(c3)OCO4)CC1)=Nc1ccccc1N2 [2-Chloro-11-(4-piperonyl)-1-piperazinyl-5H-dibenzo[b,e][1,4]diazepine] | 76 | 7.3 | – | – | – | – | – | – | –
3 | COc1ccc2c(c1)C(N1CCN(Cc3ccc4c(c3)OCO4)CC1)=Nc1ccccc1N2 [2-methoxy-11-(4-piperonyl-1-piperazinyl)-5H-dibenzo[b,e][1,4]diazepine] | 15 | 5.1 | – | better D4selectivity than the corresponding 4-methyl piperazine compound | better D4 affinity than clozapine | better D4 affinity and selectivity than the corresponding 4-methyl piperazine compound | – | – | –
4 | O=[N+]([O-])c1ccc2c(c1)C=C(N1CCN(Cc3ccc4c(c3)OCO4)CC1)c1ccccc1S2 [2-nitro-10-(4-piperonyl-1-piperazinyl)dibenzo[b,f]thiepine] | 15.3 | 281 | better D4 selectivity than clozapine | better D4selectivity than the corresponding 4-methyl piperazine compound | better D4 affinity than clozapine | – | better D4 affinity and selectivity than clozapine | – | –
5 | FC(F)(F)c1ccc2c(c1)C(N1CCN(Cc3ccc4c(c3)OCO4)CC1)=Nc1ccccc1N2 [2-trifluoromethyl-11-(4-piperonyl-1-piperazinyl)-5H-dibenzo[b,e][1,4]diazepine] | 73.5 | 1.9 | – | better D4selectivity than the corresponding 4-methyl piperazine compound | – | – | – | – | –
6 | Clc1cccc2c1Nc1ccccc1N=C2N1CCN(Cc2ccc3c(c2)OCO3)CC1 [4-chloro-11-(4-piperonyl-1-piperazinyl)-5H-dibenzo[b,e][1,4]diazepine] | 34 | 10.6 | better D4 selectivity than clozapine | – | – | – | – | – | –
7 | Clc1cccc2c1Oc1ccccc1N=C2N1CCN(Cc2ccc3c(c2)OCO3)CC1 [4-chloro-11-(4-piperonyl-1-piperazinyl)dibenz[b,f][1,4]oxazepine] | 57 | 99.2 | better D4 selectivity than clozapine | – | – | – | – | – | –
8 | N#Cc1cccc2c1Oc1ccccc1N=C2N1CCN(Cc2ccc3c(c2)OCO3)CC1 [4-cyano-11-(4-piperonyl-1-piperazinyl)dibenz[b,f][1,4]oxazepine] | 119 | 82.1 | better D4 selectivity than clozapine | – | – | – | – | – | –
9 | O=[N+]([O-])c1cccc2c1Oc1ccccc1N=C2N1CCN(Cc2ccc3c(c2)OCO3)CC1 [4-nitro-11-(4-piperonyl-1-piperazinyl)dibenz[b,f][1,4]oxazepine] | 24.5 | 53.2 | better D4 selectivity than clozapine | – | – | – | – | – | –
10 | Clc1cc2c(cc1Cl)Nc1ccccc1C(N1CCN(Cc3ccc4c(c3)OCO4)CC1)=N2 [7,8-dichloro-11-(4-piperonyl-1-piperazinyl)-5H-dibenzo[b,e][1,4]diazepine] | 61 | 27.4 | better D4 selectivity than clozapine | better D4selectivity than the corresponding 4-methyl piperazine compound | – | – | – | – | –
11 | Cc1cc2c(cc1C)Nc1ccccc1C(N1CCN(Cc3ccc4c(c3)OCO4)CC1)=N2 [7,8-dimethyl-11-(4-piperonyl)-1-piperazinyl)-5H-dibenzo[b,f][1,4]diazepine] | 266 | 14.1 | better D4 selectivity than clozapine | better D4selectivity than the corresponding 4-methyl piperazine compound | – | better D4 affinity and selectivity than the corresponding 4-methyl piperazine compound | – | – | –
12 | Clc1ccc2c(c1)N=C(N1CCN(Cc3ccc4c(c3)OCO4)CC1)c1ccccc1S2 [8-chloro-11-(4-piperonyl)-1-piperazinyl)dibenzo[b,f][1,4]thiazepine] | 24 | 63 | better D4 selectivity than clozapine | better D4selectivity than the corresponding 4-methyl piperazine compound | – | better D4 affinity and selectivity than the corresponding 4-methyl piperazine compound | – | – | –
13 | Cc1ccc2c(c1)N=C(N1CCN(Cc3ccc4c(c3)OCO4)CC1)c1ccccc1O2 [8-methyl-11-(4-piperonyl)-1-piperazinyl)dibenz[b,f][1,4]oxazepine] | 143 | 9.8 | – | better D4selectivity than the corresponding 4-methyl piperazine compound | – | better D4 affinity and selectivity than the corresponding 4-methyl piperazine compound | – | – | –
14 | c1ccc2c(c1)N=C(N1CCN(Cc3ccc4c(c3)OCO4)CC1)c1ccccc1N2 [11-(4-piperonyl)-1-piperazinyl-5H-dibenzo[b,e][1,4]diazepine] | 63 | 6 | – | better D4selectivity than the corresponding 4-methyl piperazine compound | – | better D4 affinity and selectivity than the corresponding 4-methyl piperazine compound | – | – | –
15 | CN1CCN(C2=Nc3cc(Cl)ccc3Oc3ccccc32)CC1 [isoloxapine] | – | – | – | – | – | – | – | about 10 fold | ~20
